Results taken from patent publication US10112925B2, “Methods for the preparation of charged crosslinkers” (IMMUNOGEN, INC., priority 2010, dated 2018).

Assays:
[1] = Hygroscopicity of solid forms of compound (V), qualitative comparison; assay type: physicochemical; conditions: solid form; amorphous solid made according to US 20090274713 as comparator
Description: In one embodiment, the invention is directed to new crystalline forms of the compound of formula (V), e.g., Crystalline Forms 1, 2a, 2b and 3 as described below.

[2] = Gravimetric vapour sorption (GVS) moisture sorption isotherm; assay type: physicochemical; conditions: 25° C.; for weight gain, adsorption profile (GVS): between 40% RH and 90% RH; for weight loss, desorption profile (GVS): between 90% RH and 0% RH
Description: Sorption isotherms were obtained using a SMS DVS Intrinsic moisture sorption analyser, controlled by DVS Intrinsic Control software v1.0.0.30. The sample temperature was maintained at 25° C. by the instrument controls. The humidity was controlled by mixing streams of dry and wet nitrogen, with a total flow rate of 200 ml/min. The relative humidity was measured by a calibrated Rotronic probe (dynamic range of 1.0-100% RH), located near the sample. The weight change, (mass relaxation) of the sample as a function of % RH was constantly monitored by the microbalance (accuracy ±0.005 mg).
Typically 10 mg of sample was placed in a tared mesh stainless steel basket under ambient conditions. The sample was loaded and unloaded at 40% RH and 25° C. (typical room conditions). A moisture sorption isotherm was performed as outlined below (2 scans giving 1 complete cycle). The standard isotherm was performed at 25° C. at 10% RH intervals over a 0-90% RH range. Data analysis was undertaken in Microsoft Excel using DVS Analysis Suite v6.0.0.7.

With `O=C(ON1C(=O)CCC1=O)C(CCSSc1ccccn1)S(=O)(=O)O` (stereo not drawn) [Compound of formula (V), N-succinimidyl 4-(2′-pyridyldithio)-2-sulfobutanoate] the hygroscopicity [1] was “highly hygroscopic”.

In the case of `O=C(ON1C(=O)CCC1=O)C(CCSSc1ccccn1)S(=O)(=O)O` (stereo not drawn) [Crystalline Form 2b, N-succinimidyl 4-(2′-pyridyldithio)-2-sulfobutanoate], the hygroscopicity [1] is reported as “significantly less hygroscopic than the amorphous solid”.

For `O=C(ON1C(=O)CCC1=O)C(CCSSc1ccccn1)S(=O)(=O)O` (stereo not drawn) [Crystalline Form 3, N-succinimidyl 4-(2′-pyridyldithio)-2-sulfobutanoate], the “weight gain, second adsorption profile (GVS)” value ([2]; between 0% RH and 40% RH) was 0.4%, the “weight gain, adsorption profile (GVS)” value [2] was 25% and the “weight loss, desorption profile (GVS)” value [2] was 29.4%. The hygroscopicity [1] was “significantly less hygroscopic than the amorphous solid”.

In the case of `O=C(ON1C(=O)CCC1=O)C(CCSSc1ccccn1)S(=O)(=O)O` (stereo not drawn) [Crystalline Form 2a, N-succinimidyl 4-(2′-pyridyldithio)-2-sulfobutanoate], the “weight gain, adsorption profile (GVS)” value [2] is reported as 1.8%, the “weight loss, desorption profile (GVS)” value [2] is reported as 2.4% and the hygroscopicity [1] is reported as “significantly less hygroscopic than the amorphous solid”.

With `O=C(ON1C(=O)CCC1=O)C(CCSSc1ccccn1)S(=O)(=O)O` (stereo not drawn) [Crystalline Form 1, N-succinimidyl 4-(2′-pyridyldithio)-2-sulfobutanoate] the “weight gain, adsorption profile (GVS)” value [2] was 1.6%, the “weight loss, desorption profile (GVS)” value [2] was 1.9% and the hygroscopicity [1] was “significantly less hygroscopic than the amorphous solid”.
